In US5070210A, “Novel ketenimines as intermediates for insecticides” (ICI Americas Inc., priority 1990, dated 1991):

Assays:
Assay type in all cases: in vivo
[1] = system: Housefly [Musca domestica]; experiment: Housefly insecticidal test; details: μg per 25 female flies; mortality after 48 hours
Method in brief: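 Residual contact test: acetone dilution, 0.01% peanut oil spreader, solvent evaporated; 25 ♀ flies (1-2 d old) per cage; sugar-water plug; 48 h mortality read. LC50 in μg/25 female flies, from dose-mortality curves; top dose 100 μg/25 flies.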

[2] = system: Tobacco Budworm [Heliothis virescens (Fabricius)] eggs; experiment: Tobacco budworm egg test; details: 2-day old eggs, percent in solution
Method in brief: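 LC50 is given as percent compound in the dipping solution, fitted from dosage-mortality curves. Two-day-old eggs on paper towel were dipped in acetone solutions (top concentration 0.1%), kept at 78° F on rearing medium, and scored after control hatch and larval feeding.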

[3] = system: Cabbage Looper [Trichoplusia ni (Hubner)]; experiment: Cabbage looper insecticidal test; details: second-instar larvae, percent in solution; 3-5 days
Method in brief: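 LC50, as percent test compound in solution, derived from dosage-mortality curves; concentrations started at 0.1% and went lower. Five second-instar larvae per dish fed on acetone-water-dipped, dried squash cotyledons in a humid chamber. Deaths recorded 3-5 days post-infestation.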

[4] = system: Maize weevil [Sitophilus Zeamais (Motschulsky)]; experiment: Maize weevil insecticidal test; details: adult weevils, percent in solution; 48 hours
Protocol: The compounds in Tables 1 and 2 above were tested for insecticidal activity using the following testing procedures. LC50 values, based on the results of these tests and calculated according to dosage-mortality curves, are expressed in Table 3.
Maize weevil [Sitophilus Zeamais (Motschulsky)]:
Test compounds were diluted in a 50:50 acetone:water solution. Four corn seeds [Zea mays (L.)] which had been immersed in test solutions for 2-3 seconds and allowed to dry were placed in containers together with 10 adult weevils. The containers were covered and kept at a temperature of about 25° C. Mortality was recorded after 48 hours. Test concentrations ranged from 0.01% down to that at which 50% mortalilty occurred. The LC50 values are expressed below in Table 3 under the heading "MW" in terms of percent of the test compound in solution.

Structure (SMILES) | LC50, HF [1] | LC50, TBW, E (TBW-E) [2] | LC50, CL [3] | LC50, MW [4]
Clc1ccc(N=C(OCc2cccc(Oc3ccccc3)c2)C2CCC2)cc1 [Compound 8] | 50 µg | > 0.1% | 0.01% | > 0.01%
CC(C)(C)C(=Nc1cccc(C(F)(F)F)c1)OCc1cccc(Oc2ccccc2)c1 [Compound 88] | > 100 µg | > 0.1% | 0.018% | > 0.01%
Fc1ccc(Oc2cccc(COC(=Nc3ccc(F)c(Cl)c3)C3CC3)c2)cc1 [Compound 116] | 15 µg | 0.05% | 0.00025% | > 0.01%
CCc1ccc(N=C(OCc2cccc(Oc3ccccc3)c2)C(C)(C)C)cc1 [Compound 163] | > 100 µg | > 0.1% | 0.004% | > 0.01%
CC(C)C(=Nc1ccc(F)c(Cl)c1)OCc1cccc(Oc2cccc(Cl)c2)c1 [Compound 203] | 43 µg | 0.06% | 0.0025% | > 0.01%
CC(C)C(=Nc1cc(F)c(Cl)cc1Cl)OCc1ccc(F)c(Oc2ccc(F)cc2)c1 [Compound 292] | 41 µg | 0.05% | 0.00075% | > 0.01%
Fc1ccc(Oc2cccc(COC(=Nc3cccc(C(F)(F)F)c3)C3CC3)c2)cc1 [Compound 294] | > 100 µg | > 0.1% | 0.017% | > 0.01%
CC(C)C(=Nc1ccc(F)c(Br)c1)OCc1ccc(F)c(Oc2ccccc2)c1 [Compound 299] | 8 µg | 0.017% | 0.0005% | > 0.01%
CC(C)C(=Nc1ccc(C(C)(C)C)cc1)OCc1ccc(F)c(Oc2ccc(Cl)cc2)c1 [Compound 301] | > 100 µg | > 0.1% | 0.008% | > 0.01%
CC(C)C(=Nc1cccc([N+](=O)[O-])c1)OCc1cccc(Oc2ccccc2)c1 [Compound 302] | 15 µg | > 0.1% | 0.003% | > 0.01%
CC(C)C(=Nc1c(F)c(F)cc(F)c1F)OCc1cccc(Oc2ccc(F)cc2)c1 [Compound 304] | > 100 µg | > 0.1% | 0.0024% | > 0.01%
CC(Br)C(=Nc1ccc2c(c1)OCO2)OCc1cccc(Oc2ccccc2)c1 (stereo not shown) [Compound 306] | > 100 µg | 0.1% | 0.005% | > 0.01%
CC(C)C(=Nc1ccc([N+](=O)[O-])c(C(F)(F)F)c1)OCc1cccc(Oc2ccccc2)c1 [Compound 307] | > 100 µg | 0.08% | 0.002% | > 0.01%
CC(C)C(=Nc1ccc(F)c(I)c1)OCc1ccc(F)c(Oc2ccccc2)c1 [Compound 334] | 9 µg | 0.013% | 0.0007% | > 0.01%
CC(C)c1ccc(N=C(OCc2cccc(Oc3ccccc3)c2)C2CCC2)cc1 [Compound 339] | > 100 µg | > 0.1% | 0.017% | > 0.01%
CC(C)C(=Nc1ccc(Cl)c(C(F)(F)F)c1)OCc1ccc(F)c(Oc2ccc(F)cc2)c1 [Compound 340] | 34 µg | 0.04% | 0.00037% | 0.0069%

Structure (SMILES) | LC50, HF [1] | LC50, TBW, E (TBW-E) [2] | LC50, CL [3] | LC50, MW [4]
CC(C)C(=Nc1cccc(Cl)c1)OCc1ccc(F)c(Oc2ccc(F)cc2)c1 [Compound 341] | 4 µg | 0.023% | 0.0005% | > 0.01%
CC(C)C(=Nc1cccc(F)c1)OCc1ccc(F)c(Oc2ccc(F)cc2)c1 [Compound 342] | 4.1 µg | 0.04% | 0.0008% | > 0.01%
Cc1ccc(Oc2cccc(COC(=Nc3ccc(C(C)(C)C)cc3)C(C)C)c2)cc1 [Compound 344] | > 100 µg | > 0.1% | 0.024% | > 0.01%
COc1ccc(Oc2cccc(COC(=Nc3ccc(C(C)(C)C)cc3)C(C)C)c2)cc1 [Compound 345] | > 100 µg | > 0.1% | 0.018% | > 0.01%
CCOc1ccc(N=C(OCc2cccc(Oc3ccccc3)c2)C(C)C)cc1Cl [Compound 368] | < 100 µg | 0.04% | 0.002% | > 0.01%
CCOc1ccc(N=C(OCc2cccc(Oc3ccccc3)c2)C(C)C)cc1 [Compound 371] | < 100 µg | > 0.1% | 0.0022% | > 0.01%
CCOc1ccc(N=C(OCc2ccc(F)c(Oc3ccc(Cl)cc3)c2)C(C)C)cc1 [Compound 372] | > 100 µg | > 0.1% | > 0.1% | > 0.01%
CCOc1ccc(N=C(OCc2ccc(F)c(Oc3ccccc3)c2)C(C)C)cc1 [Compound 373] | < 100 µg | > 0.1% | > 0.1% | > 0.01%
CC(C)C(=Nc1ccc(I)c(Cl)c1)OCc1cccc(Oc2ccc(F)cc2)c1 [Compound 374] | < 100 µg | 0.02% | 0.00058% | > 0.01%
CC(C)C(=Nc1ccc(F)c(Br)c1)OCc1ccc(F)c(Oc2ccc(Cl)cc2)c1 [Compound 379] | < 100 µg | 0.02% | 0.00075% | > 0.01%
CC(C)C(=Nc1ccc(Br)c(Br)c1)OCc1ccc(F)c(Oc2ccc(F)cc2)c1 [Compound 383] | < 100 µg | 0.038% | 0.00029% | > 0.01%
CC(C)C(=Nc1ccc(Br)c(Br)c1)OCc1ccc(F)c(Oc2ccccc2)c1 [Compound 384] | < 100 µg | 0.025% | > 0.1% | > 0.01%
CC(C)C(=Nc1ccc(I)c(Cl)c1)OCc1ccc(F)c(Oc2ccc(F)cc2)c1 [Compound 385] | < 100 µg | > 0.1% | > 0.1% | > 0.01%
CC(C)C(=Nc1cccc(Br)c1)OCc1ccc(F)c(Oc2ccc(Cl)cc2)c1 [Compound 386] | < 100 µg | > 0.1% | 0.0012% | > 0.01%
CC(C)C(=Nc1ccc(Cl)c(C(F)(F)F)c1)OCc1ccc(F)c(Oc2ccccc2)c1 [Compound 388] | < 100 µg | > 0.1% | 0.0012% | > 0.01%
